In patent US7244740B2, “Imidazo-pyridine derivatives for use in the treatment of herpes viral infection” (SmithKline Beecham Corporation, priority 2001, dated 2007) one finds IC50 data, which are given here for five compounds.

For this assay, the system named is HSV-1. Briefly: HSV-1 replication in Vero 76 cells, DNA hybridization capture assay. In kind it is cell-based, herpes simplex virus 1. Conditions: Human alphaherpesvirus 1; HSV-1 infected Vero 76 cells, MOI=0.001, 40–48 hours incubation, viral DNA detected by hybridization/chemiluminescence. The protocol: Vero 76 cells were maintained in MEM with Earle's salts, L-glutamine, 8% FBS (Hyclone, A-1111-L) and 100 units/mL Penicillin-100 μg/mL Streptomycin. For assay conditions, FBS was reduced to 2%. Cells are seeded into 96-well tissue culture plates at a density of 5×10^4 cells/well after being incubated for 45 min at 37° C. in the presence of HSV-1 or HSV-2 (MOI=0.001). Test compounds are added to the wells and the plates are incubated at 37° C. for 40–48 hours. Cell lysates are prepared as follows: media was removed and replaced with 150 μL/well 0.2 N NaOH with 1% Igepal CA 630 or NP-40. Plates were incubated up to 14 days at room temperature in a humidified chamber to prevent evaporation.
For the detection probe, a gel-purified, digoxigenin-labeled, 710-bp PCR fragment of the HSV UL-15 sequence was utilized. PCR conditions included 0.5 μM primers, 180 μM dTTP, 20 μM dUTP-digoxigenin (Boehringer Mannheim 1558706), 200 μM each of dATP, dCTP, and dGTP, 1×PCR Buffer II (Perkin Elmer), 2.5 mM MgCl2, 0.025 units/μL of AmpliTaq Gold polymerase (Perkin Elmer), and 5 ng of gel-purified HSV DNA per 100 μL Extension conditions were 10 min at 95° C., followed by 30 cycles of 95° C. for 1 min, 55° C. for 30 sec, and 72° C. for 2 min. The amplification was completed with a 10-min incubation at 72° C. Primers were selected to amplify a 728 bp probe spanning a section of the HSV1 UL15 open reading frame (nucleotides 249–977). Single-stranded transcripts were purified with Promega M13 Wizard kits. The final product was mixed 1:1 with a mixture of 6 M GuSCN, 100 mM EDTA and 200 μg/mL herring sperm DNA and stored at 4° C.
The capture DNA plasmid (HSV UL13 region in pUC) was linearized by cutting with Xba I, denatured for 15 min at 95° C. and diluted immediately into Reacti-Bind DNA Coating Solution (Pierce, 17250, diluted 1:1 with TE buffer, pH 8) at 1 ng/μL 75 μL/well were added to Corning (#3922 or 9690) white 96-well plates and incubated at room temperature for at least 4 hrs before washing twice with 300 μL/well 0.2×SSC/0.05% Tween-20 (SSC/T buffer). The plates were then incubated overnight at room temperature with 150 μL/well 0.2 N NaOH, 1% IGEPAL and 10 μg/mL herring sperm DNA.
Twenty-seven (27) μL of cell lysate was combined with […] of hybridization solution (final concentration: 3M GuSCN, 50 mM EDTA, 100 μg/ml salmon sperm DNA, 5× Denhardt's solution, 0.25×APE, and 5 ng of the digoxigenin-labeled detection probe). APE is 1.5 M NH4-acetate, 0.15 M ammonium phosphate monobasic, and 5 mM EDTA adjusted to pH 6.0. Mineral oil (50 μL) was added to prevent evaporation. The hybridization plates were incubated at 95° C. for 10 minutes to denature the DNA, then incubated at 42° C. overnight. The wells were washed 6× with 300 μL/well SSC/T buffer then incubated with […] anti-digoxigenin-HRP-conjugated antibody (Boehringer Mannheim 1207733, 1:5000 in TE) for 30 min at room temperature. The wells were washed 6× with 300 μL/well with PBS/0.05% Tween-20 before 75 μL/well SuperSignal LBA substrate (Pierce) was added. The plates were incubated at room temperature for 30 minutes and chemiluminescence was measured in a Wallac Victor reader.
As to `COc1cccc(-c2nc3c(Cl)cccn3c2-c2ccnc(Nc3ccccc3)n2)c1` [Example 1, 4-[8-Chloro-2-(3-methoxyphenyl)imidazo[1,2-α]pyridin-3-yl]-N-phenylpyrimidin-2-amine], the IC50 – broadly, the concentration that gives 50% inhibition – was 1460 nM. Under `COc1cccc(-c2nc3c(NC4CCCC4)cccn3c2-c2ccnc(NC3CCCC3)n2)c1` [Example 2, N-Cyclopentyl-3-[2-(cyclopentylamino)-4-pyrimidinyl]-2-(3-methoxyphenyl)imidazo[1,2-α]pyridin-8-amine] stands 350 nM. Under `Cc1ccc(-c2nc3c(Cl)cccn3c2-c2ccnc(Nc3ccccc3)n2)cc1` [Example 3, 4-[8-Chloro-2-(4-methylphenyl)imidazo[1,2-α]pyridin-3-yl]-N-phenylpyrimidin-2-amine] stands 3520 nM. In the case of `Cc1ccc(-c2nc3c(NC4CCCC4)cccn3c2-c2ccnc(Nc3ccccc3)n2)cc1` [Example 4, 3-(2-Anilino-4-pyrimidinyl)-N-cyclopentyl-2-(4-methylphenyl)imidazo[1,2-α]pyridin-8-amine], the IC50 is 3540 nM. Regarding `O=[N+]([O-])c1cccc(-c2nc3c(Cl)cccn3c2-c2ccnc(Nc3ccc(F)cc3)n2)c1` [Example 5, 4-[8-Chloro-2-(3-nitrophenyl)imidazo[1,2-α]pyridin-3-yl]-N-(4-fluorophenyl)pyrimidin-2-amine], the IC50 was 2230 nM.
